For orientation: EC30 means the concentration at which the effect reaches the 30% level.

The test system of the assay is mono-methyl arginine in RKO cells. Description: RKO Methylation Assay, In Cell Western for mono-methyl arginine. Format: cell-based. The conditions noted are these: Homo sapiens, 72 hours, percent activation of mono-methyl arginine signal. The text has this: RKO adherent cells were purchased from ATCC (American Type Culture Collection), Manassas, Va., USA. DMEM/Glutamax medium, penicillin-streptomycin, heat inactivated fetal bovine serum, 0.05% trypsin and D-PBS were purchased from Life Technologies, Grand Island, N.Y., USA. Odyssey blocking buffer, 800 CW goat anti-rabbit IgG (H+L) antibody, and Licor Odyssey infrared scanner were purchased from Licor Biosciences, Lincoln, Nebr., USA. Mono-methyl arginine antibody was purchased from Cell Signaling Technology, Danvers, Mass., USA. Methanol was purchased from VWR, Franklin, Mass., USA. 10% Tween 20 was purchased from KPL, Inc., Gaithersburg, Md., USA. DRAQ5 was purchased from Biostatus Limited, Leicestershire, UK.
RKO adherent cells were maintained in growth medium (DMEM/Glutamax medium supplemented with 10% v/v heat inactivated fetal bovine serum and 100 units/mL penicillin-streptomycin) and cultured at 37° C. under 5% CO2.
Cell Treatment, in Cell Western (ICW) for Detection of Mono-Methyl Arginine and DNA Content.
RKO cells were seeded in assay medium at a concentration of 20,000 cells per mL to a poly-D-lysine coated 384 well culture plate (BD Biosciences 356697) with 50 μL per well. Compound (100 nL) from a 96-well source plate was added directly to 384 well cell plate. Plates were incubated at 37° C., 5% CO2 for 72 hours. After three days of incubation, plates were brought to room temperature outside of the incubator for ten minutes and blotted on paper towels to remove cell media. 50 μL of ice cold 100% methanol was added directly to each well and incubated for 30 min at room temperature. After 30 min, plates were transferred to a Biotek EL406 plate washer and washed 2 times with 100 μL per well of wash buffer (IX PBS). Next 60 μL per well of Odyssey blocking buffer (Odyssey Buffer with 0.1% Tween 20 (v/v)) were added to each plate and incubated 1 hour at room temperature. Blocking buffer was removed and 20 μL per well of primary antibody was added (mono-methyl arginine diluted 1:200 in Odyssey buffer with 0.1% Tween 20 (v/v)) and plates were incubated overnight (16 hours) at 4° C. Plates were washed 5 times with 100 μL per well of wash buffer. Next 20 μL per well of secondary antibody was added (1:200 800 CW goat anti-rabbit IgG (H+L) antibody, 1:1000 DRAQ5 (Biostatus limited) in Odyssey buffer with 0.1% Tween 20 (v/v)) and incubated for 1 hour at room temperature. The plates were washed 5 times with 100 μL per well wash buffer then 2 times with 100 μL per well of water. Plates were allowed to dry at room temperature then imaged on the Licor Odyssey machine which measures integrated intensity at 700 nm and 800 nm wavelengths. Both 700 and 800 channels were scanned.
First, the ratio for each well was determined by:
Each plate included fourteen control wells of DMSO only treatment (minimum activation) as well as fourteen control wells for maximum activation treated with 20 μM of a reference compound. The average of the ratio values for each control type was calculated and used to determine the percent activation for each test well in the plate. Reference compound was serially diluted three-fold in DMSO for a total of nine test concentrations, beginning at 20 μM. Percent activation was determined and EC30 curves were generated using triplicate wells per concentration of compound.

As for `CN(CCN)Cc1c[nH]nc1C1=CCOCC1` [Compound 10], the EC30 is > 12 µM. With `CC(C)c1n[nH]cc1CN(C)CCN` [Compound 21], the concentration for an effect of 30% (EC30) was > 12 µM.

`CN(CCN)Cc1c[nH]nc1C1CCCCC1` [Compound 22]: the EC30 is < 3 µM. For `CN(CCN)Cc1c[nH]nc1CCc1ccc(F)cc1` [Compound 23, N^1-((3-(4-fluorophenethyl)-1H-pyrazol-4-yl)methyl)-N^1-methylethane-1,2-diamine] the value was < 3 µM. With `CN(CCN)Cc1c[nH]nc1/C=C/Cc1ccccc1` [Compound 24], the EC30 was < 3 µM. `CN(CCN)Cc1c[nH]nc1C1=CCCC1` [Compound 25] came in with an EC30 of 3.01 to 12 µM. With `CN(CCN)Cc1c[nH]nc1C1CCC1` [Compound 26], the concentration for an effect of 30% (EC30) is > 12 µM. As for `CCCc1n[nH]cc1CN(C)CCN` [Compound 29], the EC30 was > 12 µM. With `Cc1n[nH]cc1CN(C)CCN` [Compound 30], the EC30 is > 12 µM. With `CN(CCN)Cc1c[nH]nc1C1CCCC1` [Compound 31], the EC30 was > 12 µM.

For the compound `CNCCN(C)Cc1c[nH]nc1C1CCN(C(=O)Cc2ccccc2)CC1` [Compound 32], the EC30 was < 3 µM. The compound `CN(CCN)Cc1n[nH]cc1C1CCCCC1` [Compound 33] gave an EC30 of 3.01 to 12 µM. For `CNCCN(C)Cc1c[nH]nc1C1CCN(C(=O)C(C)C)CC1` [Compound 34] the value was < 3 µM.

For the compound `CC1CCC(c2c[nH]nc2CN(C)CCN)CC1` (stereo not drawn) [Compound 35], the 30% effect concentration (EC30) was < 3 µM. For `CN(CCN)Cc1n[nH]cc1C1CCC(C)(C)CC1` [Compound 36] the value was < 3 µM. `CC1CCC(c2n[nH]cc2CN(C)CCN)CC1` (stereo not drawn) [Compound 37, N^1-methyl-N^1-((3-(4-methylcyclohexyl)-1H-pyrazol-4-yl)methyl)ethane-1,2-diamine]: the EC30 was < 3 µM. `CN(CCN)Cc1c[nH]nc1C1CCC(C)(C)CC1` [Compound 38, N^1-((3-(4,4-dimethylcyclohexyl)-1H-pyrazol-4-yl)methyl)-N^1-methylethane-1,2-diamine]: the EC30 was < 3 µM.

As for `CNCCN(C)Cc1c[nH]nc1C1CCN(CC(C)C)CC1` [Compound 39, N^1-((3-(1-isobutylpiperidin-4-yl)-1H-pyrazol-4-yl)methyl)-N^1,N^2-dimethylethane-1,2-diamine], the EC30 is < 3 µM. On to `CNCCN(C)Cc1c[nH]nc1C1CCN(C)CC1` [Compound 41], for which the EC30 was > 12 µM. Take `CNCCN(C)Cc1c[nH]nc1C1CCNCC1` [Compound 42]: the EC30 is > 12 µM.

Compound `CN(CCN)Cc1n[nH]cc1C1CCC(N2CCOCC2)CC1` (stereo not drawn) [Compound 44, N^1-methyl-N^1-((4-(4-morpholinocyclohexyl)-1H-pyrazol-3-yl)methyl)ethane-1,2-diamine] displayed an EC30 of 3.01 to 12 µM.

Source of the values: US11185531B2, “Arginine methyltransferase inhibitors and uses thereof” (Epizyme, Inc., priority 2013, dated 2021).
